Columns and labels:
[1] = biological target: MAP3K10 (MLK2) (Homo sapiens, UniProt Q02779); experiment: SelectScreen kinase profiling, LanthaScreen binding
[2] = biological target: AXL R499C (Homo sapiens, UniProt P30530, R499C); experiment: as above
[3] = biological target: BMPR1A (ALK3) (Homo sapiens, UniProt P36894); experiment: as above
[4] = biological target: CDK11 (Inactive) (Homo sapiens, UniProt Q9BWU1); experiment: as above
[5] = biological target: PIK3CA E542K/PIK3R1 (p110 alpha E542K/p85 alpha) (Homo sapiens, UniProt P42336, E542K); experiment: SelectScreen kinase profiling, Adapta; format: biochemical; settings: PIK3CA E542K/PIK3R1, 10 µM
Chain of PIK3CA E542K/PIK3R1 (p110 alpha E542K/p85 alpha) (P42336 whole entry E542K): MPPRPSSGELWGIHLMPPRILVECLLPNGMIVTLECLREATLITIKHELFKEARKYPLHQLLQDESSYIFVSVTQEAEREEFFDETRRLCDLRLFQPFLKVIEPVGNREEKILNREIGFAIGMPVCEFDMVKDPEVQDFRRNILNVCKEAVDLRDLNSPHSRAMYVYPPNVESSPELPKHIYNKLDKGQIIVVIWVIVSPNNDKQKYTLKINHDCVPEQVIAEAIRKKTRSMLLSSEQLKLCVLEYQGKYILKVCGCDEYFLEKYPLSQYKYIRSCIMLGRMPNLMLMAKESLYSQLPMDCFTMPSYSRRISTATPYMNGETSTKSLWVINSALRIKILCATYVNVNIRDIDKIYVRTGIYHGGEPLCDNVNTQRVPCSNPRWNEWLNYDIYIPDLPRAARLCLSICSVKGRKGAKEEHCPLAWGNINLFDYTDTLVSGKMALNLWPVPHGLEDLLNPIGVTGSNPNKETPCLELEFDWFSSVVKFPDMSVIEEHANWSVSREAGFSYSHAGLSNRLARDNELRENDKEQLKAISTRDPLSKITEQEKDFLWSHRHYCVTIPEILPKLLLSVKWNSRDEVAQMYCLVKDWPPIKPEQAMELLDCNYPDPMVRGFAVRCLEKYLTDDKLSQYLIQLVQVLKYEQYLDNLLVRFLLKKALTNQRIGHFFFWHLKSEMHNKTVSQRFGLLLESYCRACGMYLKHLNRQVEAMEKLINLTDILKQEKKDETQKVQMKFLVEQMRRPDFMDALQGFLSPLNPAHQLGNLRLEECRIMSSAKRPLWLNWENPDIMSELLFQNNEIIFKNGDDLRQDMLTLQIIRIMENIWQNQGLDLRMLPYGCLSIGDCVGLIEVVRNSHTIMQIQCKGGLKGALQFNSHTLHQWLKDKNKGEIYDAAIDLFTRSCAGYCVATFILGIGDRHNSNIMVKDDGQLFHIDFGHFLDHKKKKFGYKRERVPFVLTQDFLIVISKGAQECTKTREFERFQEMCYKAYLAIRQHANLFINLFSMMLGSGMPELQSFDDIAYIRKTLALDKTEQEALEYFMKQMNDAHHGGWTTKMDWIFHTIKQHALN
Chain of PIK3CA E542K/PIK3R1 (p110 alpha E542K/p85 alpha) (P27986 whole entry partner): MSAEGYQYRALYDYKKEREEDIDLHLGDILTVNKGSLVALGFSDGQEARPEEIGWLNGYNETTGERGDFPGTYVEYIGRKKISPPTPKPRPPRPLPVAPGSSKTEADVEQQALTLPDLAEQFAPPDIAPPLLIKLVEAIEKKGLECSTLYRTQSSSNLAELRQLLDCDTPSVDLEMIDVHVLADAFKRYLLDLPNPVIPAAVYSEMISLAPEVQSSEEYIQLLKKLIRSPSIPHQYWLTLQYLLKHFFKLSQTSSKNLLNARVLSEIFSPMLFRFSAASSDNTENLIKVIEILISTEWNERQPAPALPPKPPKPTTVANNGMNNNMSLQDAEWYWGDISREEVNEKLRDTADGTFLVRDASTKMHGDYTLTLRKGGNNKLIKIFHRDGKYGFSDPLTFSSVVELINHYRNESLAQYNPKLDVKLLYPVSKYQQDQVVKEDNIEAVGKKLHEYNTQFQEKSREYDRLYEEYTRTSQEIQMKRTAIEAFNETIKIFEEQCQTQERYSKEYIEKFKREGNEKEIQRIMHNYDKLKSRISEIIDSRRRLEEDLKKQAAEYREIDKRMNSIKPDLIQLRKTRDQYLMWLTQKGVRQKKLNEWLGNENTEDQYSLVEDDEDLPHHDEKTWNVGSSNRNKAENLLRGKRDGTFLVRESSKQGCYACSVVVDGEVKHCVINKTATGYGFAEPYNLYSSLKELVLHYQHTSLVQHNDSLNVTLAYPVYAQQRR

[6] = biological target: ACVRL1 (ALK1) (Homo sapiens, UniProt P37023); experiment: SelectScreen kinase profiling, LanthaScreen binding
[7] = biological target: CDK6/cyclin D1 (Homo sapiens, UniProt Q00534); experiment: SelectScreen kinase profiling, Adapta; format: biochemical; settings: CDK6/cyclin D1, 10 µM
[8] = biological target: HIPK1 (Myak) (Homo sapiens, UniProt Q86Z02); experiment: SelectScreen kinase profiling, ZLYTE; format: biochemical
[9] = biological target: STK24 (MST3) (Homo sapiens, UniProt Q9Y6E0); experiment: SelectScreen kinase profiling, ZLYTE; format: biochemical
Excerpt: (§1) Kinase Technology % Inhibition Avg Kinase Technology % Inhibition Avg […]

[10] = biological target: TEK (TIE2) Y897S (Homo sapiens, UniProt Q02763, Y897S); experiment: SelectScreen kinase profiling, ZLYTE; format: biochemical
Excerpt: as §1

[11] = biological target: STK3 (MST2) (Homo sapiens, UniProt Q13188); experiment: SelectScreen kinase profiling, ZLYTE; format: biochemical
Excerpt: as §1

[12] = biological target: TNK1 (Homo sapiens, UniProt Q13470); experiment: SelectScreen kinase profiling, ZLYTE; format: biochemical; settings: TNK1, 10 µM
Excerpt: as §1

[13] = biological target: TAOK2 (TAO1) (Homo sapiens, UniProt Q9UL54); experiment: SelectScreen kinase profiling, ZLYTE; format: biochemical
Chain of TAOK2 (TAO1) (Q9UL54 whole entry): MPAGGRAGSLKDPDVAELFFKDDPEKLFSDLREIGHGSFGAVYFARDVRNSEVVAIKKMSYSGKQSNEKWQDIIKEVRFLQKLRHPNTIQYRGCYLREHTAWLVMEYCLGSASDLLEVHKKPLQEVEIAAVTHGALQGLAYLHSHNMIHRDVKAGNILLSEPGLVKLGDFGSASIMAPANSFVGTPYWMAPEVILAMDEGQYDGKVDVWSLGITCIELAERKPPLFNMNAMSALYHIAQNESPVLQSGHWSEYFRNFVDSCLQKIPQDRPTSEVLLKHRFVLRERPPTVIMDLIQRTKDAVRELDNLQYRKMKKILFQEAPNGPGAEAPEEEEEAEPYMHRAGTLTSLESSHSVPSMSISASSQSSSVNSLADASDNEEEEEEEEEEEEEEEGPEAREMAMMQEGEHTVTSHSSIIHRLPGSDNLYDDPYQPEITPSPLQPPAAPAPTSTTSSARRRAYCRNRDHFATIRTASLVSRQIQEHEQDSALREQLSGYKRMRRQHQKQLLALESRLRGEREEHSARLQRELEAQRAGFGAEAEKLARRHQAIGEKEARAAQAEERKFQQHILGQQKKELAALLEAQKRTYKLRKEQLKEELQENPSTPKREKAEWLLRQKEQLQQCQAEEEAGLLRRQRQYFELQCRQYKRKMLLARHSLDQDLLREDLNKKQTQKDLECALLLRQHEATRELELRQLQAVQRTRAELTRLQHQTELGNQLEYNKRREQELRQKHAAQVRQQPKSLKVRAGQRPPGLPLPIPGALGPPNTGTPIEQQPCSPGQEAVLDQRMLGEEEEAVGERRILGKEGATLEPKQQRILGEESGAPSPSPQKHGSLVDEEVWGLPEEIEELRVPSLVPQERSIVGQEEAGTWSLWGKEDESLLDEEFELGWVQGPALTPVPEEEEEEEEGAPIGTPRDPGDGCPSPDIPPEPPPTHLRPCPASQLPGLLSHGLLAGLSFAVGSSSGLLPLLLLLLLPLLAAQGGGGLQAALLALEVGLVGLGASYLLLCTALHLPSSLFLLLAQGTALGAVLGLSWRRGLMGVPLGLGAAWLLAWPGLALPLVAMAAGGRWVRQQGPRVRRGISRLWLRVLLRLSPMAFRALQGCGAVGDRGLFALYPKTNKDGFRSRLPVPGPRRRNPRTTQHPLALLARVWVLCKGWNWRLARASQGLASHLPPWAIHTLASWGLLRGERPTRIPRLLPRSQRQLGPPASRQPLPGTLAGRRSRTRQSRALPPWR
Excerpt: as §1

[14] = biological target: SYK (Homo sapiens, UniProt P43405); experiment: SelectScreen kinase profiling, ZLYTE; format: biochemical
Excerpt: as §1

[15] = biological target: TYRO3 (RSE) (Homo sapiens, UniProt Q06418); experiment: SelectScreen kinase profiling, ZLYTE; format: biochemical
Excerpt: as §1

[16] = biological target: TBK1 (Homo sapiens, UniProt Q9UHD2); experiment: SelectScreen kinase profiling, ZLYTE; format: biochemical; settings: TBK1, 10 µM
Excerpt: as §1

[17] = biological target: TXK (Homo sapiens, UniProt P42681); experiment: SelectScreen kinase profiling, ZLYTE; format: biochemical
Excerpt: as §1

[18] = biological target: STK4 (MST1) (Homo sapiens, UniProt Q13043); experiment: SelectScreen kinase profiling, ZLYTE; format: biochemical
Excerpt: as §1

[19] = biological target: STK25 (YSK1) (Homo sapiens, UniProt O00506); experiment: SelectScreen kinase profiling, ZLYTE; format: biochemical
Excerpt: as §1

[20] = biological target: TEK (Tie2) (Homo sapiens, UniProt Q02763); experiment: SelectScreen kinase profiling, ZLYTE; format: biochemical
Excerpt: as §1

[21] = biological target: TYK2 (Homo sapiens, UniProt P29597); experiment: SelectScreen kinase profiling, ZLYTE; format: biochemical; settings: TYK2, 10 µM
Chain of TYK2 (P29597 whole entry): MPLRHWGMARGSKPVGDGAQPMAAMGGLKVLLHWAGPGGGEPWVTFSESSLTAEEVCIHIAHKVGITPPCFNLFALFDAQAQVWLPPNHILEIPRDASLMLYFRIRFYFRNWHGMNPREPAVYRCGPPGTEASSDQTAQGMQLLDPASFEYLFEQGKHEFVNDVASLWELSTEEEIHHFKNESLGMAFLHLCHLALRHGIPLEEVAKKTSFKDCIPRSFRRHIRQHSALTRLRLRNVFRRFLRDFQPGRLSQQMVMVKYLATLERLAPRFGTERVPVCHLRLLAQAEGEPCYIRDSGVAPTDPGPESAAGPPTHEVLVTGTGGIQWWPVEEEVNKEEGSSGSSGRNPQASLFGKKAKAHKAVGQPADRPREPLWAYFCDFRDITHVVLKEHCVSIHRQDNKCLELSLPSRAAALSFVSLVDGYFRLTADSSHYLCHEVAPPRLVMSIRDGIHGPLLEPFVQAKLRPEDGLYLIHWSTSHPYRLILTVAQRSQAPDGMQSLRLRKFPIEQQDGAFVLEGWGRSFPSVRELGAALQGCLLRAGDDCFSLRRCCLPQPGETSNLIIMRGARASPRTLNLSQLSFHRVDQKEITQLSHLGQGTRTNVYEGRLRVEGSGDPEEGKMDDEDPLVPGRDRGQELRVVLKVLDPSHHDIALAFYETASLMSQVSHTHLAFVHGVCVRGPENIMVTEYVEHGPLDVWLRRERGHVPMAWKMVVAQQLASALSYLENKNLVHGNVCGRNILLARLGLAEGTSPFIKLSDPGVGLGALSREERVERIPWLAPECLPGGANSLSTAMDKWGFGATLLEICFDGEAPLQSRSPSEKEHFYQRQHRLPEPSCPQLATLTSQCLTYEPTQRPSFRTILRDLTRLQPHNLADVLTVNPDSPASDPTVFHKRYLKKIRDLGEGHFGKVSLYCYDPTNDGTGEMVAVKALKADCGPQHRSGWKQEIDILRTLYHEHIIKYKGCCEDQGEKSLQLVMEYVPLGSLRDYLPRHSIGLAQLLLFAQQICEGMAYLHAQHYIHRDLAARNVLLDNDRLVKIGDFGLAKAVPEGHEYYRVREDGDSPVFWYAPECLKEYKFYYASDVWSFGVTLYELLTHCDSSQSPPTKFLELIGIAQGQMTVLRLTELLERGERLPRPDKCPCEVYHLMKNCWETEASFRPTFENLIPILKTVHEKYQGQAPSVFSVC
Excerpt: as §1

[22] = biological target: IRAK4 (Homo sapiens, UniProt Q9NWZ3); experiment: SelectScreen kinase profiling, ZLYTE; format: biochemical; settings: IRAK4, 10 µM
[23] = biological target: CSF1R (FMS) (Homo sapiens, UniProt P07333); experiment: SelectScreen kinase profiling, ZLYTE; format: biochemical
[24] = biological target: EPHA1 (Homo sapiens, UniProt P21709); experiment: SelectScreen kinase profiling, ZLYTE; format: biochemical; settings: EPHA1, 10 µM
[25] = biological target: AMPK (A2/B1/G2) (Homo sapiens, UniProt P54646); experiment: SelectScreen kinase profiling, ZLYTE; format: biochemical
[26] = biological target: ACVR1B (ALK4) (Homo sapiens, UniProt P36896); experiment: SelectScreen kinase profiling, ZLYTE; format: biochemical
Chain of ACVR1B (ALK4) (P36896 24-505): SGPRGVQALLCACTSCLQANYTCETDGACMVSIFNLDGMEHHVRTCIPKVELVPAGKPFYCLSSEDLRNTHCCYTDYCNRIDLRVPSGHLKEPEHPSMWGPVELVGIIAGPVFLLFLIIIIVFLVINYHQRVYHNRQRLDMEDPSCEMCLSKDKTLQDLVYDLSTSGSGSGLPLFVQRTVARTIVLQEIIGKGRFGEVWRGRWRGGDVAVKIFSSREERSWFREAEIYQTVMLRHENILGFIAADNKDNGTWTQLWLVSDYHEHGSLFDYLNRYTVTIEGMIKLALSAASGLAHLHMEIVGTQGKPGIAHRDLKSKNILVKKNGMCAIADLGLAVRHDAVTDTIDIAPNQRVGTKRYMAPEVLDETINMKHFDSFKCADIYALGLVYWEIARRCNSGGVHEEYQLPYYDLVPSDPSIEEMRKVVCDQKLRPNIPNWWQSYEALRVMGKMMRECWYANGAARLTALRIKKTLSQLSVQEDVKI

[27] = biological target: ABL1 Y253F (Homo sapiens, UniProt P00519, Y253F); experiment: SelectScreen kinase profiling, ZLYTE; format: biochemical
[28] = biological target: PI4KB (PI4K beta) (Homo sapiens, UniProt Q9UBF8); experiment: SelectScreen kinase profiling, Adapta; format: biochemical
[29] = biological target: PDGFRA V561D (Homo sapiens, UniProt P16234, V561D); experiment: SelectScreen kinase profiling, ZLYTE; format: biochemical
[30] = biological target: LIMK1 (Homo sapiens, UniProt P53667); experiment: SelectScreen kinase profiling, LanthaScreen binding; settings: LIMK1, 10 µM
[31] = biological target: FRAP1 (mTOR) (Homo sapiens, UniProt P42345); experiment: SelectScreen kinase profiling, ZLYTE; format: biochemical
[32] = biological target: PIK3CA E545K/PIK3R1 (p110 alpha E545K/p85 alpha) (Homo sapiens, UniProt P42336, E545K); experiment: SelectScreen kinase profiling, Adapta; format: biochemical; settings: PIK3CA E545K/PIK3R1, 10 µM
Chain of PIK3CA E545K/PIK3R1 (p110 alpha E545K/p85 alpha) (P42336 whole entry E545K): as the sequence (P42336 whole entry E542K) above, with K542E, E545K counted along it
Chain of PIK3CA E545K/PIK3R1 (p110 alpha E545K/p85 alpha) (P27986 whole entry partner): as the sequence (P27986 whole entry partner) above

[33] = biological target: STK16 (PKL12) (Homo sapiens, UniProt O75716); experiment: SelectScreen kinase profiling, LanthaScreen binding
Chain of STK16 (PKL12) (O75716 whole entry): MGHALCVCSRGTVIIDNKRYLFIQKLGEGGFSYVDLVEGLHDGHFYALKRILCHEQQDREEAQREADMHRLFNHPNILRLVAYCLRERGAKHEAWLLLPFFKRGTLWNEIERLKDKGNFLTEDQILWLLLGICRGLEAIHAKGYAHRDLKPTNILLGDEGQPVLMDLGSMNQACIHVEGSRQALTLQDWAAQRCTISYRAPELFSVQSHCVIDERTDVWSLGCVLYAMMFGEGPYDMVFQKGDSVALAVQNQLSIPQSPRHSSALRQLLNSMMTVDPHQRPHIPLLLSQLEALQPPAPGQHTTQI

[34] = tested on: D283 cells; format: cell-based; settings: D283, read-out: MTT: IC50 of the proliferation assay
[35] = biological target: LRRK2 (Homo sapiens, UniProt Q5S007); experiment: SelectScreen kinase profiling, Adapta; format: biochemical; settings: LRRK2, 10 µM
[36] = biological target: CSNK1A1 (CK1 alpha 1) (Homo sapiens, UniProt P48729); experiment: SelectScreen kinase profiling, ZLYTE; format: biochemical
[37] = biological target: CDC7/DBF4 (Homo sapiens, UniProt O00311); experiment: SelectScreen kinase profiling, LanthaScreen binding; settings: CDC7/DBF4, 10 µM
[38] = biological target: GSK3B (GSK3 beta) (Homo sapiens, UniProt P49841); experiment: SelectScreen kinase profiling, ZLYTE; format: biochemical

Structure (SMILES): O=C(c1ccc(/C=C/c2n[nH]c3ccccc23)cc1)N1CCNCC1 [KW-2449]
- inhibition at 10 µM [1]: 87%
- inhibition at 10 µM [2]: 45%
- inhibition at 10 µM [3]: 98%
- inhibition at 10 µM [4]: 29%
- inhibition at 10 µM [5]: 13%
- inhibition at 10 µM [6]: 86%
- inhibition at 10 µM [7]: 82%
- inhibition at 10 µM [8]: 70%
- inhibition at 10 µM [9]: 85%
- inhibition at 10 µM [10]: 80%
- inhibition at 10 µM [11]: 77%
- inhibition at 10 µM [12]: 94%
- inhibition at 10 µM [13]: 87%
- inhibition at 10 µM [14]: 98%
- inhibition at 10 µM [15]: 92%
- inhibition at 10 µM [16]: 99%
- inhibition at 10 µM [17]: 94%
- inhibition at 10 µM [18]: 93%
- inhibition at 10 µM [19]: 45%
- inhibition at 10 µM [20]: 99%
- inhibition at 10 µM [21]: 99%
- inhibition at 10 µM [22]: 77%
- inhibition at 10 µM [23]: 99%
- inhibition at 10 µM [24]: 99%
- inhibition at 10 µM [25]: 97%
- inhibition at 10 µM [26]: 39%
- inhibition at 10 µM [27]: 100%
- inhibition at 10 µM [28]: 10%
- inhibition at 10 µM [29]: 97%
- inhibition at 10 µM [30]: 32%
- inhibition at 10 µM [31]: 9%
- inhibition at 10 µM [32]: -3%
- inhibition at 10 µM [33]: 83%
- IC50 [34]: 8.05 µM
- inhibition at 10 µM [35]: 100%
- inhibition at 10 µM [36]: 33%
- inhibition at 10 µM [37]: 16%
- inhibition at 10 µM [38]: 66%
